Patent US9302999B2, “Substituted triazoles as herbicides” (E. I. DU PONT DE NEMOURS AND COMPANY, priority 2012, dated 2016)

Legend:
Format in all cases: in vivo
[1] = system: morningglory (Ipomoea spp.); assay: Test A pre-/postemergence: morningglory; settings: for Morningglory plant response rating: visual rating on 0 to 100 scale (0 no effect, 100 complete control), approximately ten days
Procedure, shortened: (§1)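 Whole-plant greenhouse assay in loam/sand. Preemergence directed soil spray plus simultaneous postemergence spray (one- to two-leaf stage, 2–10 cm). Rated visually ~10 days later, 0 = no effect, 100 = complete control.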

[2] = system: pigweed (Amaranthus retroflexus); assay: Test A pre-/postemergence: pigweed; settings: for Pigweed plant response rating: visual rating on 0 to 100 scale (0 no effect, 100 complete control), approximately ten days
Procedure, shortened: as §1

[3] = system: wheat (Triticum aestivum); assay: Test A pre-/postemergence: wheat; settings: for Wheat plant response rating: visual rating on 0 to 100 scale (0 no effect, 100 complete control), approximately ten days
Procedure, shortened: as §1

corn (Zea mays) [4] = assay: Test A pre-/postemergence: corn; settings: for Corn plant response rating: Postemergence; for Plant response rating, Corn: Preemergence
Procedure, shortened: as §1

[5] = system: ryegrass, Italian (Italian ryegrass, Lolium multiflorum); assay: Test C pre-/postemergence: ryegrass, Italian
Excerpt: (§2) Seeds of plant species selected from blackgrass (Alopecurus myosuroides), bromegrass, downy (downy bromegrass, Bromus tectorum), foxtail, green (green foxtail, Setaria viridis), ryegrass, Italian (Italian ryegrass, Lolium multiflorum), winter wheat (Triticum aestivum), wild oat (Avena fatua), galium (catchweed bedstraw, Galium aparine), bermudagrass (Cynodon dactylon), surinam grass (Brachiaria decumbens), cocklebur (common cocklebur, Xanthium strumarium), corn (Zea mays), large crabgrass (Digitaria sanguinalis), woolly cupgrass (Eriochloa villosa), foxtail, giant (giant foxtail, Setaria faberii), goosegrass (Eleusine indica), johnsongrass (Sorghum halepense), kochia (Kochia scoparia), lambsquarters (Chenopodium album), morningglory (Ipomoea coccinea), nightshade (eastern black nightshade, Solanum ptycanthum), nutsedge, yellow (yellow nutsedge, Cyperus esculentus), pigweed (Amaranthus retroflexus), ragweed (common ragweed, Ambrosia elation), soybean (Glycine max), common (oilseed) sunflower (Helianthus annuus), Russian thistle (Salsola kali) and velvetleaf (Abutilon theophrasti) were planted into a blend of loam soil and sand and treated preemergence with test chemicals formulated in a non-phytotoxic solvent mixture which included a surfactant.
(§3) At the same time, plants selected from these crop and weed species and also barley (winter barley, Hordeum vulgare), canarygrass (Phalaris minor), chickweed (common chickweed, Stellaria media) windgrass (Apera spica-venti) and deadnettle (henbit deadnettle, Lamium amplexicaule) were planted in pots containing Redi-Earth® planting medium (Scotts Company, 14111 Scottslawn Road, Marysville, Ohio 43041) comprising spaghnum peat moss, vermiculite, wetting agent and starter nutrients and treated with postemergence applications of test chemicals formulated in the same manner. Plants ranged in height from 2 to 18 cm (1- to 4-leaf stage) for postemergence treatments.
(§4) Treated plants and controls were maintained in a greenhouse for 13 to 15 days, after which time all species were compared to controls and visually evaluated. Plant response ratings, summarized in Table C, are based on a scale of 0 to 100 where 0 is no effect and 100 is complete control. A dash (-) response means no test result.

wild oat (Avena fatua) = assay: Test C pre-/postemergence: wild oat
Excerpt: as §2, §3, §4

[6] = system: large crabgrass (Digitaria sanguinalis); assay: Test C pre-/postemergence: large crabgrass
Excerpt: as §2, §3, §4

[7] = system: johnsongrass (Sorghum halepense); assay: Test C pre-/postemergence: johnsongrass
Procedure, shortened: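 Visual injury scored 0–100 (100 = complete control) against untreated controls after 13–15 greenhouse days. Surfactant-containing solvent formulations applied either to soil after sowing (loam/sand) or over 1- to 4-leaf plants, 2–18 cm tall.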

[8] = system: morningglory (Ipomoea coccinea); assay: Test C pre-/postemergence: morningglory
Excerpt: as §2, §3, §4

[9] = system: ragweed (common ragweed, Ambrosia elation); assay: Test C pre-/postemergence: ragweed
Excerpt: as §2, §3, §4

[10] = system: chickweed (common chickweed, Stellaria media); assay: Test C postemergence: chickweed
Excerpt: as §3, §4

corn (Zea mays) [11] = assay: Test C pre-/postemergence: corn; settings: Preemergence
Excerpt: as §2, §3, §4

[12] = Postemergence, 125 g ai/ha, 0 to 100 scale, 0 is no effect, 100 is complete control
[13] = Preemergence, 125 g ai/ha, 0 to 100 scale where 0 is no effect and 100 is complete control
[14] = Preemergence, 500 g ai/ha, 0 to 100 scale (0 no effect, 100 complete control)
[15] = 125 g ai/ha, 0 to 100 scale, 0 is no effect, 100 is complete control
[16] = 500 g ai/ha, visual rating on 0 to 100 scale (0 no effect, 100 complete control), approximately ten days
[17] = 125 g ai/ha, 0 to 100 scale where 0 is no effect and 100 is complete control
[18] = 500 g ai/ha, 0 to 100 scale (0 no effect, 100 complete control)
[19] = Postemergence, 31 g ai/ha, scale 0 to 100 (0 no effect, 100 complete control)
[20] = Postemergence, 62 g ai/ha, scale 0 to 100 (0 no effect, 100 complete control)
[21] = Postemergence, 125 g ai/ha, scale 0 to 100, 0 no effect, 100 complete control
[22] = Postemergence, 250 g ai/ha, scale 0 to 100
[23] = 125 g ai/ha, scale 0 to 100, 0 no effect, 100 complete control
[24] = Preemergence, 31 g ai/ha, scale of 0 to 100, 0 is no effect, 100 is complete control
[25] = Preemergence, 62 g ai/ha, scale of 0 to 100, 0 is no effect, 100 is complete control
[26] = Preemergence, 125 g ai/ha, scale 0 to 100, 0 no effect, 100 complete control
[27] = Preemergence, 250 g ai/ha, scale 0 to 100, 0 no effect, 100 complete control

For `Cc1nn(-c2ccnc(C(F)(F)F)c2)nc1Cc1ccnc(C(F)(F)F)c1` [Compound 137], the “Plant response rating, Morningglory” value [1, 12] was 80, the “Morningglory plant response rating” value ([1]; Postemergence, 500 g ai/ha) was 100 and the “Plant response rating, Morningglory” value [1, 13] was 40. The “Plant response rating, Morningglory” value [1, 14] was 60, the “Plant response rating, Pigweed” value [2, 12] was 100 and the “Pigweed plant response rating” value ([2]; Postemergence, 500 g ai/ha) was 100. The “Plant response rating, Pigweed” value [2, 13] was 100, the “Plant response rating, Pigweed” value [2, 14] was 100 and the “Plant response rating, Wheat” value [3, 12] was 20. The “Wheat plant response rating” value ([3]; Postemergence, 500 g ai/ha) was 30, the “Plant response rating, Wheat” value [3, 13] was 0 and the “Plant response rating, Wheat” value [3, 14] was 0. The “Corn plant response rating” value (corn (Zea mays) [4]; [15]) was 20, the “Corn plant response rating” value (corn (Zea mays) [4]; [16]) was 30 and the “Plant response rating, Corn” value (corn (Zea mays) [4]; [17]) was 0. For the same molecule, the “Plant response rating, Corn” value (corn (Zea mays) [4]; [18]) was 0, the “Plant response rating, Ryegrass, Italian” value [5, 19] was 35 and the “Plant response rating, Ryegrass, Italian” value [5, 20] was 55. For the same molecule, the “Plant response rating, Ryegrass, Italian” value [5, 21] was 65, the “Plant response rating, Ryegrass, Italian” value [5, 22] was 90 and the “Plant response rating, Oat, Wild” value (wild oat (Avena fatua); [19]) was 45. For the same molecule, the “Plant response rating, Oat, Wild” value (wild oat (Avena fatua); [20]) was 50, the “Plant response rating, Oat, Wild” value (wild oat (Avena fatua); [21]) was 50 and the “Plant response rating, Oat, Wild” value (wild oat (Avena fatua); [22]) was 70. For the same molecule, the “Plant response rating, Crabgrass, Large” value [6, 19] was 15, the “Plant response rating, Crabgrass, Large” value [6, 20] was 40 and the “Plant response rating, Crabgrass, Large” value [6, 21] was 40. The “Plant response rating, Crabgrass, Large” value [6, 22] was 65, the “Plant response rating, Johnsongrass” value [7, 19] was 5 and the “Plant response rating, Johnsongrass” value [7, 20] was 40. The “Plant response rating, Johnsongrass” value [7, 21] was 80, the “Plant response rating, Johnsongrass” value [7, 22] was 90 and the “Plant response rating, Morningglory” value [8, 20] was 60. For the same molecule, the “Plant response rating, Morningglory” value [8, 21] was 80, the “Plant response rating, Morningglory” value [8, 22] was 90 and the “Plant response rating, Ragweed” value [9, 19] was 65. For the same molecule, the “Plant response rating, Ragweed” value [9, 21] was 75, the “Plant response rating, Ragweed” value [9, 22] was 85 and the “Plant response rating, Chickweed” value ([10]; 31 g ai/ha, scale 0 to 100 (0 no effect, 100 complete control)) was 70. For the same molecule, the “Plant response rating, Chickweed” value ([10]; 62 g ai/ha, scale 0 to 100 (0 no effect, 100 complete control)) was 80, the “Plant response rating, Chickweed” value [10, 23] was 98 and the “Plant response rating, Chickweed” value ([10]; 250 g ai/ha, scale 0 to 100) was 98.

For `Cc1nn(-c2ccc(F)c(C(F)(F)F)c2)nc1Oc1ccnc(C(F)(F)F)c1` [Compound 147], the “Plant response rating, Morningglory” value [1, 12] was 90, the “Morningglory plant response rating” value ([1]; Postemergence, 500 g ai/ha) was 90 and the “Plant response rating, Morningglory” value [1, 14] was 80. For the same molecule, the “Plant response rating, Pigweed” value [2, 12] was 100, the “Pigweed plant response rating” value ([2]; Postemergence, 500 g ai/ha) was 100 and the “Plant response rating, Pigweed” value [2, 13] was 100. For the same molecule, the “Plant response rating, Pigweed” value [2, 14] was 100, the “Plant response rating, Wheat” value [3, 12] was 20 and the “Wheat plant response rating” value ([3]; Postemergence, 500 g ai/ha) was 50. For the same molecule, the “Plant response rating, Wheat” value [3, 13] was 30, the “Plant response rating, Wheat” value [3, 14] was 50 and the “Corn plant response rating” value (corn (Zea mays) [4]; [15]) was 30. For the same molecule, the “Corn plant response rating” value (corn (Zea mays) [4]; [16]) was 40, the “Plant response rating, Corn” value (corn (Zea mays) [4]; [17]) was 10 and the “Plant response rating, Corn” value (corn (Zea mays) [4]; [18]) was 30. The “Plant response rating, Ryegrass, Italian” value [5, 24] was 10, the “Plant response rating, Ryegrass, Italian” value [5, 25] was 50 and the “Plant response rating, Ryegrass, Italian” value [5, 26] was 85. For the same molecule, the “Plant response rating, Ryegrass, Italian” value [5, 27] was 95, the “Plant response rating, Oat, Wild” value (wild oat (Avena fatua); [24]) was 60 and the “Plant response rating, Oat, Wild” value (wild oat (Avena fatua); [25]) was 70. For the same molecule, the “Plant response rating, Oat, Wild” value (wild oat (Avena fatua); [26]) was 85, the “Plant response rating, Oat, Wild” value (wild oat (Avena fatua); [27]) was 95 and the “Plant response rating, Corn” value (corn (Zea mays) [11]; 31 g ai/ha, scale of 0 to 100, 0 is no effect, 100 is complete control) was 10. The “Plant response rating, Corn” value (corn (Zea mays) [11]; 62 g ai/ha, scale of 0 to 100, 0 is no effect, 100 is complete control) was 10, the “Plant response rating, Corn” value (corn (Zea mays) [11]; [23]) was 25 and the “Plant response rating, Corn” value (corn (Zea mays) [11]; 250 g ai/ha, scale 0 to 100, 0 no effect, 100 complete control) was 35. For the same molecule, the “Plant response rating, Crabgrass, Large” value [6, 24] was 98, the “Plant response rating, Crabgrass, Large” value [6, 25] was 100 and the “Plant response rating, Crabgrass, Large” value [6, 26] was 100. For the same molecule, the “Plant response rating, Crabgrass, Large” value [6, 27] was 100, the “Plant response rating, Johnsongrass” value [7, 24] was 40 and the “Plant response rating, Johnsongrass” value [7, 25] was 55. For the same molecule, the “Plant response rating, Johnsongrass” value [7, 26] was 95, the “Plant response rating, Johnsongrass” value [7, 27] was 98 and the “Plant response rating, Morningglory” value [8, 24] was 30. The “Plant response rating, Morningglory” value [8, 25] was 30, the “Plant response rating, Morningglory” value [8, 27] was 35 and the “Plant response rating, Ragweed” value [9, 24] was 25. The “Plant response rating, Ragweed” value [9, 25] was 40, the “Plant response rating, Ragweed” value [9, 26] was 70 and the “Plant response rating, Ragweed” value [9, 27] was 80.
